Consider eleven compounds from patent US12473296B2, “Perk inhibiting compounds” (HiberCell, Inc., priority 2019, dated 2025).

As usually defined, the IC50 is the concentration that inhibits the measured activity by half.

For one experiment, the target named is PERK (Homo sapiens (Human), UniProt Q9NZJ5). In words: PERK cellular assay (TR-FRET, HEK293-EGFP-eIF2α cells, tunicamycin-induced ER stress). Particulars: tunicamycin 2 hours, read-out: Cellular IC50 (μM) (EIF2a). It counts as cell-based. The gist of the method:
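After 2 h tunicamycin ([…]) stress following 30 min compound pretreatment at 37 °C, lysed HEK293-EGFP-eIF2α cells were read by TR-FRET. IC50 derived by 4-parameter logistic fitting of percent inhibition, DMSO-normalized, from 10-point 3-fold dilutions.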
(In general: Time-resolved FRET reads energy transfer from a long-lived donor to a nearby acceptor.)

For experiment [1], the target named is EIF2AK3 (PERK) catalytic domain (amino acids 536-1116) (Homo sapiens (Human), UniProt Q9NZJ5). In words: PERK in vitro activity assay (isolated), TR-FRET kinase assay. Particulars: isolated PERK enzyme, 1.5 μM ATP, GFP-eIF2a substrate; read-out: Biochemical IC50. The gist of the method:
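Human PERK catalytic domain (aa 536-1116) with 100-200 nM GFP-eIF2a in 50 mM HEPES pH 7.5, 10 mM MgCl2, 1.0 mM EGTA, 0.01% Brij-35; enzyme-started reaction run 45 min at room temperature. Stopped with 10 mM EDTA, 2 nM Tb-anti-phospho-eIF2a added for 90 min; IC50 from TR-FRET ratio by 4-parameter logistic fit.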

Chain of EIF2AK3 (PERK) catalytic domain (amino acids 536-1116) (Q9NZJ5 536-1116): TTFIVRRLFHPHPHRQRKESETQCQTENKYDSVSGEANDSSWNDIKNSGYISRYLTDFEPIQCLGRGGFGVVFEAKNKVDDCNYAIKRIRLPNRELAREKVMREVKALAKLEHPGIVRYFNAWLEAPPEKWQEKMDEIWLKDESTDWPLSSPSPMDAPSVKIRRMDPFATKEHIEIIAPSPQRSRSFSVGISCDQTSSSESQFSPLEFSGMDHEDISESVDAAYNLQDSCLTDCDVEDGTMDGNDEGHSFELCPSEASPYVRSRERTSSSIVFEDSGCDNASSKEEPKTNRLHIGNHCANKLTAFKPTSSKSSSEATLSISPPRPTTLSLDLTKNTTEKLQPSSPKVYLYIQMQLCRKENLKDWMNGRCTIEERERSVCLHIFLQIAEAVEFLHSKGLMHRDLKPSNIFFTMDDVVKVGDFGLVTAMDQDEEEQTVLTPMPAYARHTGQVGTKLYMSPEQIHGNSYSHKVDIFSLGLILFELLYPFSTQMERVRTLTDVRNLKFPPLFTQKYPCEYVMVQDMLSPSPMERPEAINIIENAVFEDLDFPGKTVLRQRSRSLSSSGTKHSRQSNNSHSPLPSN
Chain of PERK (Q9NZJ5 30-1116): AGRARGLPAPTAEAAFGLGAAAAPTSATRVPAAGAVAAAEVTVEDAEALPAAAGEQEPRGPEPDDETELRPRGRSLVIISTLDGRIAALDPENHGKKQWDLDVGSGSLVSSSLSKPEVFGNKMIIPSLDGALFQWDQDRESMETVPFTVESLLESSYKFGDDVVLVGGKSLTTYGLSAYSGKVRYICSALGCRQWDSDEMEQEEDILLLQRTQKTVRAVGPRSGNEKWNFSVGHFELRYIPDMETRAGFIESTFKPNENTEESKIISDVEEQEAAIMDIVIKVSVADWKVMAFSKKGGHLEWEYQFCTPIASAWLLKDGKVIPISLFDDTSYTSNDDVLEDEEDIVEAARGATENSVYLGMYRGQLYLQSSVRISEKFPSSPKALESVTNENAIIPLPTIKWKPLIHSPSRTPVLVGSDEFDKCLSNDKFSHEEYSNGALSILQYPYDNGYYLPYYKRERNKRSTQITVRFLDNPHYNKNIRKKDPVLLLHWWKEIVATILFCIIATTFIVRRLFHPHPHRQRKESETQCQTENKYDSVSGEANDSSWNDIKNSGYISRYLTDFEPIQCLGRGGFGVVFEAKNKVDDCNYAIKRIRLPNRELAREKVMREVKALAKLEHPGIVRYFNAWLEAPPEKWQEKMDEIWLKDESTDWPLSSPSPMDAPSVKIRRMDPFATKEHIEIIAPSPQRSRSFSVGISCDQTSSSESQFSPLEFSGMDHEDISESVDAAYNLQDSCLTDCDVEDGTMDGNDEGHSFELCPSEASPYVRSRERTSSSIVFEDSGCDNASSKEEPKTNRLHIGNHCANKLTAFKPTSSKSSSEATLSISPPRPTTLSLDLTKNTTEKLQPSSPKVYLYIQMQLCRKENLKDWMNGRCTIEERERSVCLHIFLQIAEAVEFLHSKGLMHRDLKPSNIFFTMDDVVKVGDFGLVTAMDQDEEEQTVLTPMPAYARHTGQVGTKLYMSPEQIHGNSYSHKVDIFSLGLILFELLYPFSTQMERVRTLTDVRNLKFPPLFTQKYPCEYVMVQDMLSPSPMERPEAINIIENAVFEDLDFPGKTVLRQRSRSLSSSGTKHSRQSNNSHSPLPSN

Consider `CC(C)NC(=O)c1cc(-c2ccc(NC(=O)C(O)c3cc(F)cc(F)c3)c(F)c2Cl)cnc1N` (stereo not shown) [Example 124, 2-amino-5-(2-chloro-4-(2-(3,5-diflouorophenyl)-2-hydroxyacetamido)-3-fluorophenyl)-N-isopropylnicotinamide], for which the IC50 at PERK lay within 0.051 to 0.1 µM; in experiment [1], 0.026 to 0.05 µM.
Taken in the same sequence, the figures for `Cc1cc(NC(=O)C(O)c2cc(F)cc(F)c2)c(F)cc1-c1cnc(N)c(C(=O)NC(C)C)c1` (stereo not shown) [Example 125, 2-amino-5-(4-(2-(3,5-difluorophenyl)-2-hydroxyacetamido)-5-fluoro-2-methylphenyl)-N-isopropylnicotinamide] were 0.501 to 1 µM and 0.101 to 0.25 µM.
On the same counts, the results for `Cc1cc(NC(=O)C(O)c2cc(F)cc(F)c2)c(F)cc1-c1cnc(N)c(C(=O)NC(C)C)c1` (stereo not shown) [Example 126, 2-amino-5-(4-(2-(3,5-difluorophenyl)-2-hydroxyacetamido)-5-fluoro-2-methylphenyl)-N-isopropylnicotinamide] are 0.101 to 0.25 µM and 0.001 to 0.025 µM.
On to `Cc1cc(NC(=O)C(O)c2cccc(C(F)(F)F)c2)ncc1-c1cnc(N)c(C(=O)NC(C)C)c1` (stereo not shown) [Example 127, 6-amino-6′-(2-hydroxy-2-(3-(trifluoromethyl)phenyl)acetamido)-N-isopropyl-4′-methyl-[3,3′-bipyridine]-5-carboxamide], for which the IC50 at PERK was more than 5 µM; in experiment [1], 0.251 to 0.5 µM.
For the compound `Cc1cc(NC(=O)C(O)c2cccc(C(F)(F)F)c2)ncc1-c1cnc(N)c(C(=O)NC(C)C)c1` (stereo not shown) [Example 128, 6-amino-6′-(2-hydroxy-2-(3-(trifluoromethyl)phenyl)acetamido)-N-isopropyl-4′-methyl-[3,3′-bipyridine]-5-carboxamide], the IC50 on PERK is more than 5 µM; in experiment [1], 0.051 to 0.1 µM.
On the same counts, the results for `Cc1cc(NC(=O)C(O)c2cc(F)cc(F)c2)ccc1-c1cnc(N)c(C(=O)NC(C)C)n1` (stereo not shown) [Example 133, 3-amino-6-(4-(2-(3,5-difluorophenyl)-2-hydroxyacetamido)-2-methylphenyl)-N-isopropylpyrazine-2 carboxamide] are 0.101 to 0.25 µM and 0.051 to 0.1 µM.
On the same counts, the results for `Cc1cc(NC(=O)C(O)c2cc(F)cc(F)c2)ccc1-c1cnc(N)c(C(=O)NC(C)C)n1` (stereo not shown) [Example 134, 3-amino-6-(4-(2-(3,5-difluorophenyl)-2-hydroxyacetamido)-2-methylphenyl)-N-isopropylpyrazine-2-carboxamide] are 0.026 to 0.05 µM and 0.001 to 0.025 µM.
On the same counts, the results for `CNC(=O)c1nc(-c2ccc(NC(=O)C(O)c3cc(F)cc(F)c3)cc2C)cnc1N` (stereo not shown) [Example 135, 3-amino-6-(4-(2-(3,5-difluorophenyl)-2-hydroxyacetamido)-2-methylphenyl)-N-methylpyrazine-2-carboxamide] are 0.026 to 0.05 µM and 0.001 to 0.025 µM.
In the case of `Cc1cc(NC(=O)C(O)c2cc(F)cc(F)c2)ccc1-c1cnc(N)c(C(=O)NC2CC2)n1` (stereo not shown) [Example 138, 3-amino-N-cyclopropyl-6-(4-(2-(3,5-difluorophenyl)-2-hydroxyacetamido)-2-methylphenyl) pyrazine-2-carboxamide], the IC50 was 0.026 to 0.05 µM on PERK and 0.001 to 0.025 µM in experiment [1].
As to `Cc1cc(NC(=O)C(O)c2cc(F)cc(F)c2)ccc1-c1cnc(N)c(C(=O)NC2CC2)n1` (stereo not shown) [Example 139, 3-amino-N-cyclopropyl-6-(4-(2-(3,5-difluorophenyl)-2-hydroxyacetamido)-2-methylphenyl) pyrazine-2-carboxamide], the IC50 at PERK lay within 0.251 to 0.5 µM; in experiment [1], 0.001 to 0.025 µM.
On the same counts, the results for `Cc1cc(NC(=O)C(O)c2cc(F)cc(F)c2)ccc1-c1cnc(N)c(C(=O)NCCN(C)C)n1` (stereo not shown) [Example 146, 3-amino-6-(4-(2-(3,5-difluorophenyl)-2-hydroxyacetamido)-2-methylphenyl)-N-(2-(dimethylamino)ethyl)pyrazine-2-carboxamide] are 0.101 to 0.25 µM and 0.026 to 0.05 µM.
